Results as given in US10670605B2, “Cysteine reactive probes and uses thereof” (The Scripps Research Institute, priority 2015, dated 2020).

What was measured:
Assay in all cases: Competitive isoTOP-ABPP in situ (fragment-treated cells)
Assay type in all cases: cell-based
[1] = biological target: T1, cysteines in MDA-MB-231 and Ramos cells (Homo sapiens, UniProt Q86YH6); conditions: 200 μM, insitu, 231
T1 sequence (Q86YH6 1-399): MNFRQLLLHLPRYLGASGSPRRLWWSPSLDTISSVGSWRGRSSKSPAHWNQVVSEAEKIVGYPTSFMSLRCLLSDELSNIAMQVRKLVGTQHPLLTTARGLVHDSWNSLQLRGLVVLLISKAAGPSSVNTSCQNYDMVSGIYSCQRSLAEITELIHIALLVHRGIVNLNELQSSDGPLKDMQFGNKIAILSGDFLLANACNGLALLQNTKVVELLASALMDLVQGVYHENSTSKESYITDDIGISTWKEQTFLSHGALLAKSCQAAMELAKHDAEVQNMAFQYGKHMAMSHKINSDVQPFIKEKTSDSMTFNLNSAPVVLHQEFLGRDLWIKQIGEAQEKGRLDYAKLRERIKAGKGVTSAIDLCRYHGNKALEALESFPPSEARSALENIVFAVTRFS

[2] = biological target: cysteines in MDA-MB-231 and Ramos cells (Homo sapiens, UniProt O14980); conditions: 200 μM, insitu
[3] = biological target: cysteines in MDA-MB-231 and Ramos cells (Homo sapiens, UniProt P53634); conditions: 200 μM, insitu, 231
[4] = biological target: cysteines in MDA-MB-231 and Ramos cells (Homo sapiens, UniProt Q9UNI6); conditions: 200 μM, insitu, 231
[5] = biological target: cysteines in MDA-MB-231 and Ramos cells (Homo sapiens, UniProt Q9UJW0); conditions: 200 μM, insitu
[6] = biological target: T2, cysteines in MDA-MB-231 and Ramos cells (Homo sapiens, UniProt Q96F86); conditions: 200 μM, insitu
T2 sequence (Q96F86 1-508): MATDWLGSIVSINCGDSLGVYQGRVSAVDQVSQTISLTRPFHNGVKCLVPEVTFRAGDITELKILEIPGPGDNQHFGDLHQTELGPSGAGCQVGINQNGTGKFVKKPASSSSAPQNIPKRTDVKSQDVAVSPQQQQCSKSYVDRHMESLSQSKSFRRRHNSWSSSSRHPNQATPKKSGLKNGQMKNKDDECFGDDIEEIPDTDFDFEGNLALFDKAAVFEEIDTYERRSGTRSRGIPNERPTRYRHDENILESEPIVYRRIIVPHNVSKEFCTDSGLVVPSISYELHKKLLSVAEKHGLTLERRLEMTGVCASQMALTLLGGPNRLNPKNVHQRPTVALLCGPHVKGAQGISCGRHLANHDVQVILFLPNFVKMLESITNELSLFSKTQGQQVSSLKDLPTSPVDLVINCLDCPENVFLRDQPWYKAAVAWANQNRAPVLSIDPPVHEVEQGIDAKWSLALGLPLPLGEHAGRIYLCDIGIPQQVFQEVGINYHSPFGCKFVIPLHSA

[7] = biological target: cysteines in MDA-MB-231 and Ramos cells (Homo sapiens, UniProt P35658); conditions: 200 μM, insitu, 231
[8] = biological target: T3, cysteines in MDA-MB-231 and Ramos cells (Homo sapiens, UniProt Q96EB1); conditions: 200 μM, insitu, 231
T3 sequence (Q96EB1 1-424): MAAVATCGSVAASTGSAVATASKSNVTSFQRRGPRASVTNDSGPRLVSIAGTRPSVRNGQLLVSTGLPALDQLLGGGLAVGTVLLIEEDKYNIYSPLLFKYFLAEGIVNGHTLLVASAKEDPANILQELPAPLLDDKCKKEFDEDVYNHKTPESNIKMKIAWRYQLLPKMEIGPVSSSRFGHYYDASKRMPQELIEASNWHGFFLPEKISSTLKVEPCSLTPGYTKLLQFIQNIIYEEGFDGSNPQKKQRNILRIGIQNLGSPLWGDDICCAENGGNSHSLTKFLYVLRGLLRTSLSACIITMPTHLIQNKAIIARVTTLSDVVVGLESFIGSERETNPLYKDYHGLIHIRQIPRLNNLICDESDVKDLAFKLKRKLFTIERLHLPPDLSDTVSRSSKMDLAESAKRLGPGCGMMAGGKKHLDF

[9] = biological target: T4, cysteines in MDA-MB-231 and Ramos cells (Homo sapiens, UniProt Q86UY8); conditions: 200 μM, insitu, 231
T4 sequence (Q86UY8 1-548): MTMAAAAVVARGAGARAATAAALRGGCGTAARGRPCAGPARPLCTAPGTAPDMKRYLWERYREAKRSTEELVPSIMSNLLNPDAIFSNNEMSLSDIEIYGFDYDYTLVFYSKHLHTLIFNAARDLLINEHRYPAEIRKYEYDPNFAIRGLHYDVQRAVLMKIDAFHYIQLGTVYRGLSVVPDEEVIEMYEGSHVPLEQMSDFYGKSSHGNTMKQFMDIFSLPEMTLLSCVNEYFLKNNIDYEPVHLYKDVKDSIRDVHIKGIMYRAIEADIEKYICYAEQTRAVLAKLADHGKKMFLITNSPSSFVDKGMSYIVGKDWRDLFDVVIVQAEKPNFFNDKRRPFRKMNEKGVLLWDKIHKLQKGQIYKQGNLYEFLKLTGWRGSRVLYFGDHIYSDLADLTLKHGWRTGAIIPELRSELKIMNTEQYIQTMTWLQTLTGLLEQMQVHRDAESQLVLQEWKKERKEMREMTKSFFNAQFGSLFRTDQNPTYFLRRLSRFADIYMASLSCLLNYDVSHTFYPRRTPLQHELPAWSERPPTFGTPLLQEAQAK

[10] = biological target: cysteines in MDA-MB-231 and Ramos cells (Homo sapiens, UniProt P14635); conditions: 200 μM, insitu, 231
[11] = biological target: cysteines in MDA-MB-231 and Ramos cells (Homo sapiens, UniProt P48643); conditions: 200 μM, insitu, ramos
Chain of cysteines in MDA-MB-231 and Ramos cells (Homo sapiens, UniProt P48643) (P48643 whole entry): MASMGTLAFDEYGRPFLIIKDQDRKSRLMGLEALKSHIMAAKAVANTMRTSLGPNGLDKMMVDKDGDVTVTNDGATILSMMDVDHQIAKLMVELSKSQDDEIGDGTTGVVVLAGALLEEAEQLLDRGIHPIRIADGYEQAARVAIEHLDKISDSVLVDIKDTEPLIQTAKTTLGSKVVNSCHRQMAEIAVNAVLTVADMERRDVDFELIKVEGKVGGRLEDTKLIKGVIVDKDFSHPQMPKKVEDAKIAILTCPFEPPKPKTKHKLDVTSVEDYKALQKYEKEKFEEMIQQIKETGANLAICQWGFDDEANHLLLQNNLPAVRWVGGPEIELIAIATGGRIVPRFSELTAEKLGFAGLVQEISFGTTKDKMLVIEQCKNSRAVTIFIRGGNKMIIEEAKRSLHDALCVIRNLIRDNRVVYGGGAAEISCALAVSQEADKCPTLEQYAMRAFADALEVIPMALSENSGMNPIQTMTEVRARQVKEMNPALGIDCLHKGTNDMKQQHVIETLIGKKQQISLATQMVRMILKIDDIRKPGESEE

Chain of cysteines in MDA-MB-231 and Ramos cells (Homo sapiens, UniProt O14980) (O14980 whole entry): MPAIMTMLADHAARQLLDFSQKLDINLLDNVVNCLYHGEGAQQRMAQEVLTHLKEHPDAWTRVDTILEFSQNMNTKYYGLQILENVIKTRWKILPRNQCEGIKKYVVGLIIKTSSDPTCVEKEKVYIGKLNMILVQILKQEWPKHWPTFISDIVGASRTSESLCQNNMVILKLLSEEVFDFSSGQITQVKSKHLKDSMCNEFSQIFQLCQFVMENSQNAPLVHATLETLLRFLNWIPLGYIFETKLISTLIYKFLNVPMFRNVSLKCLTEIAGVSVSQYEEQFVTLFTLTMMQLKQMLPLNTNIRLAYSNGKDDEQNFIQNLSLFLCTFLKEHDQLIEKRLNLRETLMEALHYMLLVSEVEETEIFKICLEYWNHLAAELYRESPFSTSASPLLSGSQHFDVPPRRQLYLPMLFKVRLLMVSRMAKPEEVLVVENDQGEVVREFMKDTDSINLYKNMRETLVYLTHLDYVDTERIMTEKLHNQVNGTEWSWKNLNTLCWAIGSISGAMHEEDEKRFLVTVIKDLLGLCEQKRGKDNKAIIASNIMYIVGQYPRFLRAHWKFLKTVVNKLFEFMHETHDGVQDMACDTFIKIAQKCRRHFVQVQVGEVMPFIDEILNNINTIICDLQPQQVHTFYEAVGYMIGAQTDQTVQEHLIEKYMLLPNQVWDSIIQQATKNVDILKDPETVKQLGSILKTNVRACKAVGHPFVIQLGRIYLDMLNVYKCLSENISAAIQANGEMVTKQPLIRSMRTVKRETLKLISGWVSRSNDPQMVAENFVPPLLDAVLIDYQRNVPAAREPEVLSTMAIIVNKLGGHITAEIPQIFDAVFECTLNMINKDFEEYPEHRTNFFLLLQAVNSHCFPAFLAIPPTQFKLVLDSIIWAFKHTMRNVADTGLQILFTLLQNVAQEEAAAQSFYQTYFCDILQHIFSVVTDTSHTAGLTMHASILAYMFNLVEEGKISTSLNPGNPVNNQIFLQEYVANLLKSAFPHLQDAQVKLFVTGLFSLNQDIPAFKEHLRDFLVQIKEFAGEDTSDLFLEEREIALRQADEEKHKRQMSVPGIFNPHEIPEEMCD
Chain of cysteines in MDA-MB-231 and Ramos cells (Homo sapiens, UniProt Q9UJW0) (Q9UJW0 whole entry): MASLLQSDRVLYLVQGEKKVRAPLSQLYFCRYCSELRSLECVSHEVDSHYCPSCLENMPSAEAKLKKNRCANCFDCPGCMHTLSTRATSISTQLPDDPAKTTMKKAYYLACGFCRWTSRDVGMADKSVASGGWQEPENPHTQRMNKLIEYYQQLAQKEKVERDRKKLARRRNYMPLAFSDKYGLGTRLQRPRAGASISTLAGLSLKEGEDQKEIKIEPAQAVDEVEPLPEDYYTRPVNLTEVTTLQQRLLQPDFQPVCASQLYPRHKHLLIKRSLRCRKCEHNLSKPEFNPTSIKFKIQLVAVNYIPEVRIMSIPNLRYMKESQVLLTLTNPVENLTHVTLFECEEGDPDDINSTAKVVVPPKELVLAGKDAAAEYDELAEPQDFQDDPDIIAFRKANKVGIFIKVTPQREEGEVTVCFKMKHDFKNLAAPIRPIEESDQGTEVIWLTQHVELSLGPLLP
Chain of cysteines in MDA-MB-231 and Ramos cells (Homo sapiens, UniProt Q9UNI6) (Q9UNI6 whole entry): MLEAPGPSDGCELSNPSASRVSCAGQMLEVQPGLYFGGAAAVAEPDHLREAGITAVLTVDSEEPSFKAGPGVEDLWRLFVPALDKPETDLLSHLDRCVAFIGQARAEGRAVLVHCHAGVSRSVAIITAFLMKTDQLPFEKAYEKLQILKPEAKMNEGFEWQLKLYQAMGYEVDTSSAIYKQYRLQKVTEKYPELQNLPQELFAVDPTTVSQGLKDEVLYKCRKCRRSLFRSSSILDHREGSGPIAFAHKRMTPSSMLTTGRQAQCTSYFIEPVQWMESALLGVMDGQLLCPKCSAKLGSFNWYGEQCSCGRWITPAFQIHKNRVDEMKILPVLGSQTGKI
Chain of cysteines in MDA-MB-231 and Ramos cells (Homo sapiens, UniProt P35658) (P35658 whole entry): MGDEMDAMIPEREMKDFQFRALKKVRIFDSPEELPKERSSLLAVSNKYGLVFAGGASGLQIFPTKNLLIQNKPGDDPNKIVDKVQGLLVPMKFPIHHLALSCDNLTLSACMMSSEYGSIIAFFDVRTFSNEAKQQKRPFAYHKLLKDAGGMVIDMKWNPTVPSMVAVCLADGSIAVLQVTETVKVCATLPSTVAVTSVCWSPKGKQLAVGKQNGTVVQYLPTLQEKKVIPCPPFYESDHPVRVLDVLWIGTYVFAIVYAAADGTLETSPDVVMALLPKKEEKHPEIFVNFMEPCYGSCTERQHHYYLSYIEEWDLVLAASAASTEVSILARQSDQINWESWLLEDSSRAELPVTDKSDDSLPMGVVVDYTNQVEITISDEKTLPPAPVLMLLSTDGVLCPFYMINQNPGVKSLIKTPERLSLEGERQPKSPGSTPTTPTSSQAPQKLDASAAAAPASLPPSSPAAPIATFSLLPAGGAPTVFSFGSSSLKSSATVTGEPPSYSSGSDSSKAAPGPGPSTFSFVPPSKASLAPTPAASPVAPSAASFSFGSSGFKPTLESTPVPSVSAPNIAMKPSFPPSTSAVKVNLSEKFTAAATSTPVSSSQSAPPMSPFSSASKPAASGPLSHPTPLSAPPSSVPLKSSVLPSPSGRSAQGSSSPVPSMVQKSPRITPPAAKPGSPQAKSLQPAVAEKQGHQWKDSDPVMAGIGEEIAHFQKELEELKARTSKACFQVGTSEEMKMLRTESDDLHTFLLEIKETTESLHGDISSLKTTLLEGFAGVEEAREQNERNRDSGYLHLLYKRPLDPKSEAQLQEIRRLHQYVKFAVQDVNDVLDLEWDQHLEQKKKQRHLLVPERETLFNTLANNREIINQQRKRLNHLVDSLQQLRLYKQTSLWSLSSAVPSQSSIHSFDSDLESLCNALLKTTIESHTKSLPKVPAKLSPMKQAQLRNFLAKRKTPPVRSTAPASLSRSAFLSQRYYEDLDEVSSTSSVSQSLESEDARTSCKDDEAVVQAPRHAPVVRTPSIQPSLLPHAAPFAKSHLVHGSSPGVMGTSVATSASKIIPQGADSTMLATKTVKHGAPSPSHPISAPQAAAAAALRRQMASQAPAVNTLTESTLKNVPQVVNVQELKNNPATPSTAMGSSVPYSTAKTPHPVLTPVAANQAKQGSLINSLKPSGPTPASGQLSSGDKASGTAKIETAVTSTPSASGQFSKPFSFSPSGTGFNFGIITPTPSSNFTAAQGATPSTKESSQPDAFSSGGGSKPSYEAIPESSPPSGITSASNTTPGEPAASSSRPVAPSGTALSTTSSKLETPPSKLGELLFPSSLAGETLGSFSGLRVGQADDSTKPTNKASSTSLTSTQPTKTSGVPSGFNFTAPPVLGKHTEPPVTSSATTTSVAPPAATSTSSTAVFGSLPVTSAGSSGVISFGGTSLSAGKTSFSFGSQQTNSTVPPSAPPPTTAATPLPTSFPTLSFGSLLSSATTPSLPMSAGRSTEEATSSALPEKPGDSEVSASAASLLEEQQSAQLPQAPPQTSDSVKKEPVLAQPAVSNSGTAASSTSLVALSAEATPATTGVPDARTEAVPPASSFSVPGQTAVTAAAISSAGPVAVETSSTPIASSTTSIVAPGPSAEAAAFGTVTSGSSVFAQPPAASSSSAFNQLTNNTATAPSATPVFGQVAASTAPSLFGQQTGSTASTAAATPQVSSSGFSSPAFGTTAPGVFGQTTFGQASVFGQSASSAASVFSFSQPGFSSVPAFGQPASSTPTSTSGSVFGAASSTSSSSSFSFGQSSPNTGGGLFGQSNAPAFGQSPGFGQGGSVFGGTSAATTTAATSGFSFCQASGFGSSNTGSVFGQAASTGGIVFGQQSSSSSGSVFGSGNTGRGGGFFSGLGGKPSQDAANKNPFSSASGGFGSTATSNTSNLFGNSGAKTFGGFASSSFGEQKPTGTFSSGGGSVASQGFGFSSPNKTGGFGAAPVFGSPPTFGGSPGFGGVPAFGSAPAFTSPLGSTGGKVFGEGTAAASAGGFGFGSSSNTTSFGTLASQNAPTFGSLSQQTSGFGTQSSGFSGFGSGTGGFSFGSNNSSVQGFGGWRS
Chain of cysteines in MDA-MB-231 and Ramos cells (Homo sapiens, UniProt P14635) (P14635 whole entry): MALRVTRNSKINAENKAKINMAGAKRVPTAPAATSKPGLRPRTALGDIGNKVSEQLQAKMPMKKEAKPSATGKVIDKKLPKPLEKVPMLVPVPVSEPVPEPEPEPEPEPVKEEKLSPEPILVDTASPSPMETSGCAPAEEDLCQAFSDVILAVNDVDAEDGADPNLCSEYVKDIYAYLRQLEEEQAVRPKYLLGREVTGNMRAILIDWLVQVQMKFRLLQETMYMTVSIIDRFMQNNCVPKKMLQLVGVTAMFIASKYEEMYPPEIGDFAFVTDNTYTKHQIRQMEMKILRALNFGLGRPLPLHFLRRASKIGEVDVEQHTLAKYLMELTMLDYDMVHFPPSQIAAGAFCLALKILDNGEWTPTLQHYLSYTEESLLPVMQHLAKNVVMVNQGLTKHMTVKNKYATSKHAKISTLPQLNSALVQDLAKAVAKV

isoTOP-ABPP ratio Q86YH6_C71 [1]: 20.0
isoTOP-ABPP ratio O14980_C528 [2]; 231: 1.3
isoTOP-ABPP ratio O14980_C528 ([2]; ramos): 0.7
isoTOP-ABPP ratio, cysteine P53634_C258 [3]: 5.5
isoTOP-ABPP ratio, cysteine Q9UNI6_C265 [4]: 1.2
isoTOP-ABPP ratio Q9UJW0_C258 [5]; 231: 20.0
isoTOP-ABPP ratio Q9UJW0_C258 ([5]; ramos): 20.0
isoTOP-ABPP ratio Q96F86_C413 [6]; 231: 20.0
isoTOP-ABPP ratio Q96F86_C413 ([6]; ramos): 20.0
isoTOP-ABPP ratio P35658_C728 [7]: 20.0
isoTOP-ABPP ratio, cysteine Q96EB1_C218 [8]: 1.1
isoTOP-ABPP ratio Q86UY8_C276 [9]: 5.8
isoTOP-ABPP ratio, cysteine P14635_C238 [10]: 6.7
isoTOP-ABPP ratio P48643_C253 [11]: 0.9
Structure (SMILES): O=C(CCl)N1CCN(S(=O)(=O)c2ccccc2F)CC1 [compound 10]
